# Laboratory results from patent publication US11326183B2, “VCN enhancer compositions and methods of using the same” (priority 2016, dated 2022).
# Entries after “also recorded” stand apart in the source; their conditions may differ.
# Tests used:
# [1] = system: hCD34+ cells; assay: VCN of pooled colonies after 14 day MethoCult culture, staurosporine and/or PGE2; assay type: cell-based, human; details: for VCN compared to controls or other treatments, in words: mean VCN
# Description: (§1) Washed cells were resuspended in 200 μL SCGM and then transferred to 3 mL aliquots of cytokine-supplemented methylcellulose (for example, Methocult M4434 Classic). 1.1 mL was then transferred to parallel 35-mm tissue culture dishes using a blunt 16-gauge needle. Dishes were maintained in a standard humidified tissue culture incubator for 12-16 days and colonies were scored for size, morphology, and cellular composition. Individual colonies were then picked for subsequent VCN analysis or the contents of an entire 35-mm dish were pooled and then subject to VCN analysis.
# Cells were then transduced with LVV and cultured in the presence of protamine sulfate (standard), PGE2 or vehicle. After transduction, cells were washed and cultured in MethoCult for 14 days.
# After a 14 day MethoCult culture, pooled colonies were collected and analyzed for VCN. Mean VCN data is shown. […] FIG. 8.
# [2] = system: hCD34+ cells; assay: BlaM (BLAM) assay for assessment of viral entry; assay type: cell-based, human
# Description: Cells were transduced for 2 hours in the presence of F108, PGE2, and a virus encoding a β-lactamase-Vpr fusion protein. Following transduction, cells were washed and incubated with a fluorescent β-lactamase substrate for 30-60 minutes. β-lactamase cleavage was analyzed by flow cytometry: uncleaved substrate is GFP^+, and cleavage of the fluorescent β-lactamase results in a Pacific Blue^+ signal. β-lactamase cleavage indicates lentivirus entry into the cell. See also, Cavrois et al. Nature Biotechnology. 2002.
# Cells transduced for 2 hours were then subjected to staining and flow analysis for the BLAM assay to quantify viral entry. […]. FIGS. 1B and 1C.
# [3] = system: hCD34+ cells; assay: Methylcellulose assay for CFC formation (stem cell potential); assay type: cell-based, human
# Description: as §1
# For the 2 hour incubation, cells were subsequently washed and cultured in transduction media for the remaining 24 hours. Following the cultures, cells were plated in methylcellulose for CFC formation. […] FIG. 2B. […] FIG. 2A.
# [4] = system: long-term NSG repopulating cells; assay: VCN of bone marrow from NSG mice 4 months post-transplant of transduced hCD34+ cells; assay type: in vivo
# Source text: (§2) HSCs transduced with lentivirus were transplanted into NOD/SCID Gamma (NSG) mice to assess the effect of candidate compounds on viral transduction of human long-term hematopoietic stem cells. Transduced cells were washed and resuspended in phosphate-buffered saline (PBS) and transplanted into the tail vein of sub-myeloablated adult NSG mice, with minimal residual toxicity. Mice were housed in a pathogen-free environment per standard IACUC animal care guidelines. At 4 months post-transplant bone marrow (BM) was harvested from both femurs and analyzed for both VCN and engraftment of human cells by staining with an anti-hCD45 antibody (BD #561864) followed by flow cytometry analysis.
# (§3) Following transduction, cells were washed and injected into busulfan-treated NSG mice. Aliquots of the drug product were retained for in vitro analysis. […] FIG. 4A. […] FIG. 4A. After 4 months in vivo, NSG mice were sacrificed and BM was collected and analyzed for VCN of the engrafted hCD34+ cells. There was an overall decrease in mean VCNs across all groups in vivo as compared to the drug product VCNs, indicating higher transduction of short-term progenitors rather than long-term stem cells. FIG. 4B.
# [5] = system: hCD34+ cells; assay: Transgene (LNGFR) expression by flow cytometry; assay type: cell-based, human; details: 200 nM staurosporine 2 hours, 24 hour transduction
# [6] = system: bulk hCD34+ cells and CD34+CD38LoCD90+CD45RA- phenotypic stem cells; assay: Single-cell PCR assay of transduction efficiency in bulk and CD34+CD38LoCD90+CD45RA- cells; assay type: cell-based, human; details: 400 nM or 800 nM staurosporine 2 hours
# Description: (§4) Washed cells were resuspended in 2 mL Stem Cell Growth Medium (SCGM)+cytokines and transferred to a standard 12-well non-adherent tissue culture plate. Cells were maintained for an additional 6 days in a standard humidified tissue culture incubator (5% CO2) and then subjected to Vector Copy Number (VCN) analysis or single-cell nested PCR to determine transduction efficiency. Both VCN and the single-cell nested PCR assay were performed with qPCR using primers and probes specific to both the vector and an endogenous control gene. VCN was determined by dividing the amount of vector signal by the amount of the endogenous control gene. For the single-cell nested PCR assay, wells that contained a cell positive for the endogenous control gene and wells that contained a marked cell positive for both the vector and the endogenous control gene were enumerated, and the proportion of marked cells, or transduction efficiency, was calculated.
# Thawed hCD34+ cells were stained with antibodies against cell surface markers for phenotypic HSCs (CD34^+CD38^LoCD90^+CD45^RA− cells) and then sorted using a Sony Cell Sorter. […] After culture, the cells were then single-cell sorted into 96 well plates and analyzed via the single-cell PCR assay to assess transduction efficiency, the percent lentiviral vector positive cells. […]
# [7] = system: transplanted hCD34+ cells; assay: Engraftment and differentiation of transplanted hCD34+ cells in NSG mice (flow cytometry of BM); assay type: in vivo; details: BM four months post-transplant
# Source text: as §2
# Cells were stained with an antibody cocktail recognizing various cell surface markers (CD45, CD33, CD3, CD19) and analyzed via flow cytometry. […] FIG. 5B.
# [8] = system: hCD34+ cells; assay: Vector copy number (VCN) analysis of hCD34+ cells transduced with LVV after staurosporine treatment; assay type: cell-based, human
# Description: as §4, §1
# Cells transduced for 2 hours were then subjected to staining and flow analysis for the BLAM assay to quantify viral entry. […] FIG. 1A. […] FIGS. 1B and 1C.
# These seven cell lots had been prospectively classified as low, medium, or high transducing cell lots. A low transducing cell lot is defined here as having a mean VCN <0.5 in vehicle-treated transductions, a medium transducing cell lot is defined here as having a mean 0.5<VCN<1, and a high transducing cell lot is defined here as having a mean VCN>1. […] This property of leveling average VCN among cell lots with different transducibility could aid in controlling variability between cell lots and normalizing drug product VCNs.
# as §3
# [9] = system: hCD34+ grafts; assay: Non-restrictive insertion site analysis (polyclonality)
# Source text: Identified insertion sites were mapped within gene regions to examine the lentiviral integration profile. […] Insertion sites were also quantified as the percent of total reads. The top 10 clones are shown for each treatment.
# Insertion sites were pooled for each group and quantified as the percent of total reads. The top 10 clones are shown for each treatment.
smiles,measurement,setting,value
"CCCCC[C@H](O)/C=C/[C@H]1[C@H](O)CC(=O)[C@@H]1C/C=C\CCCC(=O)O [PGE2, prostaglandin E2]","VCN compared to controls or other treatments, in words",[1],increased VCN compared to controls
"CN[C@@H]1C[C@H]2O[C@@](C)([C@@H]1OC)n1c3ccccc3c3c4c(c5c6ccccc6n2c5c31)C(=O)NC4 [staurosporine, Staurosporine]",increase in the amount of cells containing LVV compared to vehicle-treated controls,"[2]; 200 nM staurosporine 2 hours, washed, 2 hour transduction",~50%
same,"percentage of cells containing vector by BLAM assay, fold higher than controls","[2]; staurosporine-treated hCD34+ cells, two MOIs",1.5 fold
same,colony formation ability,"[3]; 2 hour exposure, 200 nM, 400 nM or 800 nM",retain colony formation ability and do not significantly differ from control-treated cells; also recorded: did not affect the ability of the hCD34^+ cells to form colonies
same,colony-forming potential,"[3]; 24 hour exposure, 800 nM",few hCD34^+ cells that retain colony-forming potential
same,decrease in CFC formation,"[3]; 24 hour exposure, lower doses (200 nM, 400 nM)",> 50%
same,reduction in CFC formation,"[3]; 24 hours exposure, 3 different concentrations of staurosporine",> 50%
same,fold improvement in mean in vivo VCN of BM relative to vehicle,[4]; 400 nM staurosporine prior to transduction,3 fold
same,fold improvement in mean in vivo VCN of BM relative to vehicle,[4]; 800 nM staurosporine prior to transduction,4 fold
same,fold increase in transgene expression (LNGFR),[5],1.5 fold
same,transduction efficiency (percent lentiviral vector positive cells) versus standard transduction,[6],increased transduction efficiency compared to standard transduction conditions; also recorded: higher than the transduction efficiency of the cells transduced using the standard transduction protocol
same,"VCN compared to controls or other treatments, in words",[1],increased VCN compared to controls; also recorded: outperforms PGE2 addition
same,fold increase in VCN,[1]; staurosporine two hours before transduction,3 fold
same,effect of staurosporine treatment on engraftment,[7]; 400 nM or 800 nM,does not affect engraftment; also recorded: no statistically significant effect
same,proportion of myeloid (CD33+) or lymphoid (CD3+ or CD19+) cells / differentiation capabilities,[7]; 400 nM or 800 nM,is maintained; also recorded: no difference
same,level of engraftment of hCD34+ cells,"[7]; all groups (vehicle, 400 nM, 800 nM staurosporine)",30-40%
same,fold increase in (mean) VCN versus control,"[8]; 200 nM staurosporine 2 hours, washed, 24 hour transduction",2 fold
same,"mean VCN of the drug product, in words",[8]; 400 nM staurosporine 2 hours,did not significantly improve the mean VCN
same,"mean VCN of the drug product, in words",[8]; 800 nM staurosporine,VCN enhancement
same,fold improvement in mean VCN of the drug product (pooled colonies) versus vehicle,[8]; 800 nM staurosporine 2 hours,approximately 2 fold
same,fold increase in average VCN,"[8]; 800 nM staurosporine 2 hours, high transducing cell lots (mean VCN>1)",1.2 fold
same,fold increase in average VCN,"[8]; 800 nM staurosporine 2 hours, low transducing cell lots (mean VCN <0.5)",2.3 fold
same,fold increase in average VCN,"[8]; 800 nM staurosporine 2 hours, medium transducing cell lots (0.5<VCN<1)",1.5 fold
same,effect of increasing staurosporine concentration on VCN enhancement,"[8]; 200, 400, 800 nM, high transducing cell lots",plateaus
same,effect of increasing staurosporine concentration on mean VCN,"[8]; 200, 400, 800 nM, low and medium transducing cell lots",trend for increasing mean VCN
same,clonality of engrafted cells (insertion site profile),"[9]; BM four months post-transplant, top 10 clones",polyclonal insertion site profile similar to vehicle treated cells
same,lentiviral integration profile of transduced cells,"[9]; pre-transplant drug product, insertion sites mapped within gene regions",did not appear to skew
same,clonality of pre-transplantation samples,"[9]; pre-transplant drug product, top 10 clones as percent of total reads",polyclonality
